Molecular target: T1, HEK cells stably transfected with tetracycline inducible hNR1 and hNR2A (Homo sapiens, UniProt Q05586+Q12879)
T1 construct: expressed in transfected cells; host or cells: HEK cells, stably transfected, tetracycline/doxycycline inducible
Test: Assay 1: Cell-Based Assay, cytosolic calcium response to positive allosteric modulators (with 30 μM glycine and 300 nM L-glutamate, EC30)
Conditions: for EC50: cytosolic calcium response, with 30 μM glycine and 300 nM L-glutamate (EC30), — = no plateau was reached; for Max %: responses scaled relative to 100 μM L-glutamate maximal response (100%) and 0 μM L-glutamate (0%)
How it was run: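 Cells induced 24 h with 7.5 μg mL^−1 doxycycline plus 500 μM (+)-ketamine, loaded 60 min at 37 °C with calcium dye in Mg-free HBSS (1.8 mM Ca, probenecid, 10 μM (+)-ketamine, pH 7.15). Peak RFU over 5 min after compound addition, scaled to 100 μM L-glutamate (100%) and 0 μM (0%); four-parameter Hill fit for EC50, max % if no plateau.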

T1 sequence (Q12879 23-1464, other chains not shown): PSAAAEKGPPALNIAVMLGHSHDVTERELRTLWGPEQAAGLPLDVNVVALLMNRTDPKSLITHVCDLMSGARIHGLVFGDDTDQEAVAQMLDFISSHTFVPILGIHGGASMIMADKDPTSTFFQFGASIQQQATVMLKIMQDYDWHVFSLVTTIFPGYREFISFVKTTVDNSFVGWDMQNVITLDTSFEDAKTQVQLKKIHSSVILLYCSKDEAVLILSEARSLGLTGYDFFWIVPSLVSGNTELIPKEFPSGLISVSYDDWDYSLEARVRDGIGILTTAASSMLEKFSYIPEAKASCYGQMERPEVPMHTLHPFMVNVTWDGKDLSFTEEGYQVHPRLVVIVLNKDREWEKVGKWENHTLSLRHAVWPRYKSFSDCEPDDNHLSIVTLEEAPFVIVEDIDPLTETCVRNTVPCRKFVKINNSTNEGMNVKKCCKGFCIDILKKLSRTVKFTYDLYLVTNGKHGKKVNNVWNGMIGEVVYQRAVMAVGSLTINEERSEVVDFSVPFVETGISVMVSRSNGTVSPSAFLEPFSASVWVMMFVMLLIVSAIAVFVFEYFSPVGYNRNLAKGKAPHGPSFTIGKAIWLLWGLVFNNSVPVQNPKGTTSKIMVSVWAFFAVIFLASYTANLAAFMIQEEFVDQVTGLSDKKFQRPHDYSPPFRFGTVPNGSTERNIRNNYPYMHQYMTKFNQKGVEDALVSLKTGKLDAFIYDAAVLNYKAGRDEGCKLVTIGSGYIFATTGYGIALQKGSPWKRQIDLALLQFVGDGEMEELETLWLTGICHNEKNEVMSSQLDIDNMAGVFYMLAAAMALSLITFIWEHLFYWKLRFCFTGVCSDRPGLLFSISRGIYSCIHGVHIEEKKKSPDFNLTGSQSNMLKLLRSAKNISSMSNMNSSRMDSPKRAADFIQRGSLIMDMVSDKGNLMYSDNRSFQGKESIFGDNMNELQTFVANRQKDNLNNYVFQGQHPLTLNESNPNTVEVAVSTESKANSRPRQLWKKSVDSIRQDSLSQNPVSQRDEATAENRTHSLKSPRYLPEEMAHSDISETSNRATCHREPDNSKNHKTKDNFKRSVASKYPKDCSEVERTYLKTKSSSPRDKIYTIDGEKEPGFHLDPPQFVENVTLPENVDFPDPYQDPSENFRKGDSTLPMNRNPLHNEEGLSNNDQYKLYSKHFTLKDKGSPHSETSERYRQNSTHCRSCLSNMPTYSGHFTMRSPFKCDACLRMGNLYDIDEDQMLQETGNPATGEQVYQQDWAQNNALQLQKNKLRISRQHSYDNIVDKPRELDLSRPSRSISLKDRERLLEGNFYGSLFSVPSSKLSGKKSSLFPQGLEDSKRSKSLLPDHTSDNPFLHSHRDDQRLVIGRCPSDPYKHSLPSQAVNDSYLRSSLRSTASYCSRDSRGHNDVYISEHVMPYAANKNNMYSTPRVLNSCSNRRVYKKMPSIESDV

SMILES | EC50 (Table 3) [nM] | EC50 (Table 2) [nM] | Max % (Table 2) [%]
CCNC(=O)c1c(C)sc2nc(Cc3cccc(Cl)c3F)c(F)c(=O)n12 [compound 8, 7-[(3-chloro-2-fluoro-phenyl)methyl]-N-ethyl-6-fluoro-2-methyl-5-oxo-thiazolo[3,2-a]pyrimidine-3-carboxamide] | 2550 | – | –
Cc1sc2nc(COc3ccc(F)cc3)cc(=O)n2c1C(N)=O [Example 1.8, 7-((4-fluorophenoxy)methyl)-2-methyl-5-oxo-5H-thiazolo[3,2-a]pyrimidine-3-carboxamide] | – | 26300 | 47.4
Cc1sc2nc(Cn3nc(Cl)cc3C(F)(F)F)cc(=O)n2c1Br [compound 216, 3-bromo-7-[[3-chloro-5-(trifluoromethyl)pyrazol-1-yl]methyl]-2-methyl-thiazolo[3,2-a]pyrimidin-5-one] | 59.4 | – | –
CCNC(=O)c1c(C(F)(F)F)sc2nc(COc3ccc(F)cc3)cc(=O)n12 [Example 3.4, N-Ethyl-7-(4-fluorophenoxymethyl)-5-oxo-2-(trifluoromethyl)-5H-[1,3]thiazolo[3,2-a]pyrimidine-3-carboxamide] | – | – | 44.6
Cc1sc2nc(Cn3nc(N)cc3Cl)cc(=O)n2c1Br [compound 227, 7-[(3-amino-5-chloro-pyrazol-1-yl)methyl]-3-bromo-2-methyl-thiazolo[3,2-a]pyrimidin-5-one] | 13000 | – | –
CCN(Cc1cc(=O)n2c(-c3nccs3)c(C)sc2n1)c1ccc(F)cc1 [Example 5.8, 7-((ethyl(4-fluorophenyl)amino)methyl)-2-methyl-3-(thiazol-2-yl)-5H-thiazolo[3,2-a]pyrimidin-5-one] | – | 669 | 156
CCN(Cc1cc(=O)n2c(-c3cncnc3)c(C)sc2n1)c1ccc(F)c(F)c1 [Example 5.4, 7-(((3,4-difluorophenyl)(ethyl)amino)methyl)-2-methyl-3-(pyrimidin-5-yl)-5H-thiazolo[3,2-a]pyrimidin-5-one] | – | 956 | 172
Cc1sc2nc(Cn3nc(C(F)(F)F)cc3Cl)cc(=O)n2c1C1CC1CO (single isomer, unassigned) [compound 136] | 39.1 | – | –
CCNC(=O)c1c(C)sc2nc(Cc3cccc(C#N)c3F)cc(=O)n12 [Example 21.13, 7-(3-cyano-2-fluorobenzyl)-N-ethyl-2-methyl-5-oxo-5H-thiazolo[3,2-a]pyrimidine-3-carboxamide] | – | 12300 | 131
CCN(Cc1cc(=O)n2c(CC(=O)NC)c(C)sc2n1)c1ccc(F)cc1 [compound 25, 2-[7-[(N-ethyl-4-fluoro-anilino)methyl]-2-methyl-5-oxo-thiazolo[3,2-a]pyrimidin-3-yl]-N-methyl-acetamide] | 292 | – | –
CCN(Cc1cc(=O)n2c(-c3cccnc3F)c(C)sc2n1)c1ccc(F)cc1 [Example 5.25, 7-[(N-ethyl-4-fluoro-anilino)methyl]-3-(2-fluoro-3-pyridyl)-2-methyl-thiazolo[3,2-a]pyrimidin-5-one] | – | 700 | 141
CCN(Cc1cc(=O)n2c(-c3ccoc3)c(C)sc2n1)c1ccc(F)cc1 [Example 5.44, 7-((ethyl(4-fluorophenyl)amino)methyl)-3-(furan-3-yl)-2-methyl-5H-thiazolo[3,2-a]pyrimidin-5-one] | – | 1100 | 158
Cc1sc2nc(COc3ccc(C#N)cc3)cc(=O)n2c1[C@@H]1C[C@H]1CO (relative stereo) [Example 4.13, 4-((3-(trans-2-(hydroxymethyl)cyclopropyl)-2-methyl-5-oxo-5H-thiazolo[3,2-a]pyrimidin-7-yl)methoxy)benzonitrile] | – | 31100 | 72.8
CCc1c(C)sc2nc(CN(CC)c3ccc(F)cc3)cc(=O)n12 [Example 5.40, 3-ethyl-7-((ethyl(4-fluorophenyl)amino)methyl)-2-methyl-5H-thiazolo[3,2-a]pyrimidin-5-one] | – | 1900 | 149
Cc1sc2nc(CN3c4ccc(F)cc4CC3C)cc(=O)n2c1C#N (centres unmarked) [Example 7.5, 7-((5-fluoro-2-methylindolin-1-yl)methyl)-2-methyl-5-oxo-5H-thiazolo[3,2-a]pyrimidine-3-carbonitrile] | – | 2100 | 162
CCN(Cc1cc(=O)n2c(Cl)csc2n1)c1ccc(F)cc1 [Example 11.5, 3-chloro-7-[(N-ethyl-4-fluoro-anilino)methyl]thiazolo[3,2-a]pyrimidin-5-one] | – | 4600 | 167
CCNC(=O)c1c(C(F)F)sc2nc(Cn3nc(C(F)(F)F)cc3Cl)cc(=O)n12 [compound 258, 7-[[5-Chloro-3-(trifluoromethyl)pyrazol-1-yl]methyl]-2-(difluoromethyl)-N-ethyl-5-oxo-thiazolo[3,2-a]pyrimidine-3-carboxamide] | 227 | – | –

SMILES | EC50 (Table 3) [nM] | EC50 (Table 2) [nM] | Max % (Table 2) [%]
CCN(Cc1cc(=O)n2c3c(sc2n1)CCC3CC#N)c1ccc(F)cc1 (centres unmarked) [Example 8.13, 2-[6-[(N-ethyl-4-fluoro-anilino)methyl]-8-oxo-2,3-dihydro-1H-cyclopenta[3,4]thiazolo[1,4-a]pyrimidin-1-yl]acetonitrile] | – | 2200 | 162
CCNC(=O)c1c(C)sc2nc(Cc3cc(C#N)ccc3C(F)(F)F)cc(=O)n12 [Example 21.40, 7-(5-cyano-2-(trifluoromethyl)benzyl)-N-ethyl-2-methyl-5-oxo-5H-thiazolo[3,2-a]pyrimidine-3-carboxamide] | – | – | 61.6
Cc1sc2nc(Cn3nc(Cl)cc3C(F)(F)F)cc(=O)n2c1C1CC1 [compound 117, 7-[[3-chloro-5-(trifluoromethyl)pyrazol-1-yl]methyl]-3-cyclopropyl-2-methyl-thiazolo[3,2-a]pyrimidin-5-one] | 1030 | – | –
Cc1sc2nc(Cn3nc(C(F)(F)F)cc3Cl)cc(=O)n2c1CC#N [compound 229, 2-[7-[[5-chloro-3-(trifluoromethyl)pyrazol-1-yl]methyl]-2-methyl-5-oxo-thiazolo[3,2-a]pyrimidin-3-yl]acetonitrile] | 6460 | – | –
CNC(=O)c1c(C)sc2nc(Cc3ccc(Cl)cc3C)cc(=O)n12 [Example 21.41, 7-(4-chloro-2-methylbenzyl)-N,2-dimethyl-5-oxo-5H-thiazolo[3,2-a]pyrimidine-3-carboxamide] | – | – | 59.7
C=C(C)c1c(C)sc2nc(Cn3nc(C(F)(F)F)cc3Cl)cc(=O)n12 [compound 135, 7-[[5-chloro-3-(trifluoromethyl)pyrazol-1-yl]methyl]-3-isopropenyl-2-methyl-thiazolo[3,2-a]pyrimidin-5-one] | 397 | – | –
CCN(Cc1cc(=O)n2c(CCCCO)c(C)sc2n1)c1ccc(F)cc1 [Example 13.3, 7-((Ethyl(4-fluorophenyl)amino)methyl)-3-(4-hydroxybutyl)-2-methyl-5H-thiazolo[3,2-a]pyrimidin-5-one] | – | 783 | 137
CCN(Cc1cc(=O)n2c(-c3cncc(OC)c3)c(C)sc2n1)c1ccc(F)cc1 [Example 5.58, 7-[(N-ethyl-4-fluoro-anilino)methyl]-3-(5-methoxy-3-pyridyl)-2-methyl-thiazolo[3,2-a]pyrimidin-5-one] | – | 5100 | 120
CCNC(=O)c1c(C(F)(F)F)sc2nc(Cn3nc(C)cc3C(F)(F)F)cc(=O)n12 [compound 46, N-ethyl-7-[[3-methyl-5-(trifluoromethyl)pyrazol-1-yl]methyl]-5-oxo-2-(trifluoromethyl)thiazolo[3,2-a]pyrimidine-3-carboxamide] | 7040 | – | –
Cc1sc2nc(Cn3nc(C(F)(F)F)cc3Cl)cc(=O)n2c1C1CC1 [compound 116, 7-[[5-chloro-3-(trifluoromethyl)pyrazol-1-yl]methyl]-3-cyclopropyl-2-methyl-thiazolo[3,2-a]pyrimidin-5-one] | 351 | – | –
CCN(Cc1cc(=O)n2c(-c3cccnc3N)c(C)sc2n1)c1ccc(F)cc1 [Example 5.11, 3-(2-aminopyridin-3-yl)-7-((ethyl(4-fluorophenyl)amino)methyl)-2-methyl-5H-thiazolo[3,2-a]pyrimidin-5-one] | – | 2900 | 118
CCN(Cc1cc(=O)n2cc(C)sc2n1)c1ccccc1 [Example 11.6, 7-[(N-ethylanilino)methyl]-2-methyl-thiazolo[3,2-a]pyrimidin-5-one] | – | 5000 | 133
Cc1sc2nc(Cn3nccc3C(F)(F)F)cc(=O)n2c1-c1cncnc1 [Example 15.31, 2-methyl-3-(pyrimidin-5-yl)-7-((5-(trifluoromethyl)-1H-pyrazol-1-yl)methyl)-5H-thiazolo[3,2-a]pyrimidin-5-one] | – | – | 57.8
CCNC(=O)c1c(C#N)sc2nc(Cc3cccc(C(F)(F)F)c3F)cc(=O)n12 [compound 105, 2-Cyano-N-ethyl-7-[[2-fluoro-3-(trifluoromethyl)phenyl]methyl]-5-oxo-thiazolo[3,2-a]pyrimidine-3-carboxamide] | 3900 | – | –
CCN(Cc1cc(=O)n2c(C#N)c(C)sc2n1)c1cccc(C#N)c1 [Example 7.6, 7-(((3-cyanophenyl)(ethyl)amino)methyl)-2-methyl-5-oxo-5H-thiazolo[3,2-a]pyrimidine-3-carbonitrile] | – | 3700 | 151
N#CC1CC1c1c(C(F)(F)F)sc2nc(Cn3nc(C(F)(F)F)cc3Cl)cc(=O)n12 (centres unmarked) [compound 144, 2-[7-[[5-chloro-3-(trifluoromethyl)pyrazol-1-yl]methyl]-5-oxo-2-(trifluoromethyl)thiazolo[3,2-a]pyrimidin-3-yl]cyclopropanecarbonitrile] | 41.1 | – | –
CCNC(=O)c1c(Cl)sc2nc(Cc3cccc(C(F)(F)F)c3F)cc(=O)n12 [compound 60, 2-chloro-N-ethyl-7-[[2-fluoro-3-(trifluoromethyl)phenyl]methyl]-5-oxo-thiazolo[3,2-a]pyrimidine-3-carboxamide] | 3220 | – | –
